The target in one assay is T1, Histone deacetylase 8 (Homo sapiens, UniProt Q9BY41).
T1 sequence (Q9BY41 whole entry): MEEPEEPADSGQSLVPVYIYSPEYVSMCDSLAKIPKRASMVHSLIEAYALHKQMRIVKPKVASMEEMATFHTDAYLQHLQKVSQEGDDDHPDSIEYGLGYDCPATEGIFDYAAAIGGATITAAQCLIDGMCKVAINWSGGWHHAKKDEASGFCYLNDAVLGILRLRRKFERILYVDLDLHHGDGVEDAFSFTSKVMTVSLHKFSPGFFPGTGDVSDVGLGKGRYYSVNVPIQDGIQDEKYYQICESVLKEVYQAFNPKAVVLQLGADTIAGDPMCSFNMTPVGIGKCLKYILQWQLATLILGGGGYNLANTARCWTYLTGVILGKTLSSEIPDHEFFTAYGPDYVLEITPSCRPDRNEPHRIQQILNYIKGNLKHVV
As to the kind of experiment: Inhibition of full length C-terminal His6x-tagged recombinant human HDAC8 expressed in baculovirus using Arg-His-Lys(Ac)-Lys(Ac) as substrate after 1 hr by fluorescence plate reader analysis.

Assay [1] has as its target T2, Protein deacetylase HDAC6 (Homo sapiens, UniProt Q9UBN7).
T2 sequence (Q9UBN7 whole entry): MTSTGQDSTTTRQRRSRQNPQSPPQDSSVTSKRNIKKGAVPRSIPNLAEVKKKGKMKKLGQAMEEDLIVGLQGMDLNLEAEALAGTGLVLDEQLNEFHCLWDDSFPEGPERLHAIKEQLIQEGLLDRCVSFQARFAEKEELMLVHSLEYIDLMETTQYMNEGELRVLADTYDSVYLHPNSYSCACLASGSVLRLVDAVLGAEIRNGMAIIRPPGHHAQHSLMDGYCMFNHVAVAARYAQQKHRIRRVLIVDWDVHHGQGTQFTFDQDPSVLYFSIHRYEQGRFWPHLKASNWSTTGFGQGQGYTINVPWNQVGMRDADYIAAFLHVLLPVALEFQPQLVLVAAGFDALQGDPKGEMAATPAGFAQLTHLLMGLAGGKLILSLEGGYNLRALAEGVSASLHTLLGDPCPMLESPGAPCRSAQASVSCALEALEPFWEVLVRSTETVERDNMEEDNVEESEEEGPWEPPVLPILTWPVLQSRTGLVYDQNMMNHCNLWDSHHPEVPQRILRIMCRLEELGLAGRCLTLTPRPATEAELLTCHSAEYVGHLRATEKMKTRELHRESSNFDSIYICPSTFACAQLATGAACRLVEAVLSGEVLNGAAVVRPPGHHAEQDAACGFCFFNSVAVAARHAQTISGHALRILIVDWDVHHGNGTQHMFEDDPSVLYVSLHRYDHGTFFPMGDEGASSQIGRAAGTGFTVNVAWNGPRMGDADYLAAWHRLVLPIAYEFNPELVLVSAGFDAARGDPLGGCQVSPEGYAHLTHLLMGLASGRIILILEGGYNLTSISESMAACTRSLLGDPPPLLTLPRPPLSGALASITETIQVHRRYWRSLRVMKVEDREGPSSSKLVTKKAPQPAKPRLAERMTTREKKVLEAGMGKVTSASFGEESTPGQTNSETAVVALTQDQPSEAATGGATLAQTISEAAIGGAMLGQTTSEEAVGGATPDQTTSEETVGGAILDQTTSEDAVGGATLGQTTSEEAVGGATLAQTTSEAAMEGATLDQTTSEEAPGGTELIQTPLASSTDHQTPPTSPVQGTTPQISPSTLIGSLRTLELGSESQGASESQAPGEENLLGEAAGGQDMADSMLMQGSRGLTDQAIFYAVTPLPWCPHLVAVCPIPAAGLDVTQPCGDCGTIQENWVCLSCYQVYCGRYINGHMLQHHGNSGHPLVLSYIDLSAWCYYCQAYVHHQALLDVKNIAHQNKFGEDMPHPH
As to the kind of experiment: Inhibition of N-terminal GST-tagged recombinant HDAC6 (unknown origin) assessed as deacetylation of Ac-Arg-Gly-Lys (Ac) after 1 hr by fluorescence plate reader analysis in presence of trypsin.

The target of assay [2] is T3, Polyamine deacetylase HDAC10 (Homo sapiens, UniProt Q969S8).
T3 sequence (Q969S8 whole entry): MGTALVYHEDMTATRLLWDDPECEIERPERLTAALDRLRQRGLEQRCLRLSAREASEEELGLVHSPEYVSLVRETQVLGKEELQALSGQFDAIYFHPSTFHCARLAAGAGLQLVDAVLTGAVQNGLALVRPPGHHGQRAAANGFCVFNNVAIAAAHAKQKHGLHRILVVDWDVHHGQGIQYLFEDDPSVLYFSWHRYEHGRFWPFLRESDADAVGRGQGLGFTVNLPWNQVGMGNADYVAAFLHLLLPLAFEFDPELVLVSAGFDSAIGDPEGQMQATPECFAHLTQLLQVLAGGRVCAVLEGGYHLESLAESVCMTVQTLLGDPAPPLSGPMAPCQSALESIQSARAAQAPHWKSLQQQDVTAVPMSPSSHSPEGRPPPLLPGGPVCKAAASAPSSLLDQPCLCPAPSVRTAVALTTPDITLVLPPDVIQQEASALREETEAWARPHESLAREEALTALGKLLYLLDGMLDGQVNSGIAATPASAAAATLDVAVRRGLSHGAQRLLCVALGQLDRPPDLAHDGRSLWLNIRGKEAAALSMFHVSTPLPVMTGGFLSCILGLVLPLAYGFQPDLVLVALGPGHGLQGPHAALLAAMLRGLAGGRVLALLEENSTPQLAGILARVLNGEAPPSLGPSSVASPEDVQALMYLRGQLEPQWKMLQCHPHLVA
As to the kind of experiment: Inhibition of N-terminal GST-tagged recombinant human HDAC10 (1 to 481) expressed in baculovirus using Arg-His-Lys-Lys (Ac) as substrate after 1 hr by fluorescence plate reader analysis.

The target of the next assay is Histone deacetylase 1 (Homo sapiens, UniProt Q13547). As to the kind of experiment: Inhibition of full length GST-tagged recombinant human HDAC1 expressed in baculovirus using Arg-His-Lys-Lys (Ac) as substrate after 2 hrs by fluorescence plate reader analysis.
Sequence of Histone deacetylase 1 (Q13547 whole entry): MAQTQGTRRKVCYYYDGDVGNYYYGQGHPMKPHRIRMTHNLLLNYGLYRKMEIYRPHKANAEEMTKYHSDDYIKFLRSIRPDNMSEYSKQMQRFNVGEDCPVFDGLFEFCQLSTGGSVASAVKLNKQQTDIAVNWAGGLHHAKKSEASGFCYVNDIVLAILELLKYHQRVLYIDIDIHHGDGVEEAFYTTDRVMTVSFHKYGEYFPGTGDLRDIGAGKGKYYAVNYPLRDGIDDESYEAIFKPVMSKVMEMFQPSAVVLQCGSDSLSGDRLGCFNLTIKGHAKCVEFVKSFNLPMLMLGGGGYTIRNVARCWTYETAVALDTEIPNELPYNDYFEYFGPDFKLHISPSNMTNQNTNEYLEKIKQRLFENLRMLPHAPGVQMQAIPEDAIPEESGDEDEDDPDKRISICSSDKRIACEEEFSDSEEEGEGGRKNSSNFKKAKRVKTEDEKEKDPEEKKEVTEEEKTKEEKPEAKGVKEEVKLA

For the compound `Cn1cccc1C(=O)N1Cc2ccc(C(=O)NO)cc2C1`, the IC50 on Histone deacetylase 8 is 1.3 µM; in assay [1], 0.04 µM; in assay [2], > 50 µM; on Histone deacetylase 1, > 50 µM.

`CC(C)(C)C(=O)N1CCc2cc(C(=O)NO)ccc2C1`: the IC50 at Histone deacetylase 8 was 2.1 µM; in assay [1], 0.052 µM; in assay [2] it was > 50 µM; on Histone deacetylase 1 it was > 50 µM.

`Cn1cccc1C(=O)N1CCCc2cc(C(=O)NO)ccc2C1`: the IC50 on Histone deacetylase 8 was 0.89 µM; in assay [1], 0.26 µM; in assay [2], > 50 µM; on Histone deacetylase 1, > 50 µM.

Consider `CC(C)(C)C(=O)N1Cc2ccc(C(=O)NO)cc2C1`, for which the IC50 is 1.3 µM on Histone deacetylase 8, 0.089 µM in assay [1], > 50 µM in assay [2] and > 50 µM on Histone deacetylase 1.

Turning to `Cn1cccc1C(=O)NCc1ccc(C(=O)NO)cc1`, the IC50 was determined as 0.69 µM at Histone deacetylase 8, 0.019 µM in assay [1], 3.7 µM in assay [2] and 5.8 µM at Histone deacetylase 1.

Take `Cn1cccc1C(=O)N1CCc2cc(C(=O)NO)ccc2C1`: the IC50 on Histone deacetylase 8 is 2.1 µM; in assay [1], 0.036 µM; in assay [2], > 50 µM; on Histone deacetylase 1, 45 µM.

These data come from ChEMBL document CHEMBL2429834, “Potent histone deacetylase inhibitors derived from 4-(aminomethyl)-N-hydroxybenzamide with high selectivity for the HDAC6 isoform” (J Med Chem, 2013).
